Measured values reported in patent US4659727A, “Ethene derivatives” (May & Baker Limited, priority 1984, dated 1987).

Assays:
mouse macrophage cells = assay: reduction by 50% of inhibition of migration of incubated mouse macrophage cells (antagonism or reduction of lymphokine levels); assay type: in vivo; details: po, twice: one hour before and four hours after antigen, each time at the dose shown, mice
Description: For example, from tests in mice it was calculated that compounds of formula I, when twice administered orally, one hour before and four hours after the administration of antigen, each time at the doses shown in the following Table I, would reduce by 50% the inhibition of migration of incubated mouse macrophage cells measured in a manner similar to that described by Likhite et al, Cellular Immunology, Vol 5, 1972, page 377. This is a measure of antagonism or reduction of the levels of lymphokines and is indicative of utility in the treatment of arthritic patients.

lipoxygenase = assay: inhibition of lipoxygenase in vitro; assay type: biochemical; details: 0.0001M
From the text: For example, in tests in vitro at concentrations of 0.0001M, a compound of formula I inhibited lipoxygenase by the percentage shown in the following Table III.

[1] = system: delayed-type hypersensitivity (Type IV hypersensitivity reaction), foot pad swelling; assay: delayed-type hypersensitivity (DTH) test, foot pad swelling; assay type: in vivo; details: mice
From the text: Compounds of formula I were also submitted to the delayed-type hypersensitivity (DTH) test, which is an in-vivo model of cellular immunity (Type IV hypersensitivity reaction) which is suppressed by antirheumatic drugs. Previously sensitised mice receive antigen challenge (using methylated bovine serum albumen) by foot pad injection and the resulting foot pad swelling is compared in control animals and animals treated with compounds of formula I.

[2] = dose 50 mg/kg animal body weight
[3] = dose 10 mg/kg animal body weight

| Structure (SMILES) | ED50 (mouse macrophage cells) [mg/kg] | also measured |
| --- | --- | --- |
| Cc1cc(C)nc(NC=CC=O)c1 [AI, 1-formyl-2-(4,6-dimethylpyrid-2-ylamino)ethene] | 5.2 |  |
| Cn1cc(C(N)=O)ccc1=NC=C(S(=O)(=O)c1ccccc1)S(=O)(=O)c1ccccc1 [AP, 2-[2,2-bis(phenylsulphonyl)ethen-1-ylimino]-5-carbamoyl-1-methylpyridine] | < 10 |  |
| O=S(=O)(C(=CNc1nccnn1)S(=O)(=O)c1ccccc1)c1ccccc1 [C, 1,1-bis(phenylsulphonyl)-2-(1,2,4-triazin-3-ylamino)ethene] | 2 |  |
| O=S(=O)(C(=CNc1nccs1)S(=O)(=O)c1ccccc1)c1ccccc1 [Compound A, 1,1-bis(phenylsulphonyl)-2-(thiazol-2-ylamino)ethene] | 10 |  |
| CCOC(=O)C(=CNc1ncccc1C)C(=O)OCC [Compound AM, 1,1-bis(ethoxycarbonyl)-2-(3-methylpyrid-2-ylamino)ethene] |  | % inhibition of lipoxygenase (lipoxygenase): 62% |
| O=[N+]([O-])c1ccc(N(C=CS(=O)(=O)c2ccccc2)c2ccc(Br)cn2)cc1 [Compound BE, 1-[N-(5-bromopyrid-2-yl)-N-(4-nitrophenyl)]amino-2-phenylsulphonylethene] | 4.4 |  |
| O=S(=O)(C(=CNc1nc2ccccc2s1)S(=O)(=O)c1ccccc1)c1ccccc1 [D, 1-(benzothiazol-2-ylamino)-2,2-bis(phenylsulphonyl)ethene] |  | % inhibition [1, 2]: 27% |
| O=S(=O)(C(=CNc1cnc2ccccc2c1)S(=O)(=O)c1ccccc1)c1ccccc1 [E, 1,1-bis(phenylsulphonyl)-2-(quinol-3-ylamino)ethene] |  | % inhibition [1, 3]: 38%; % inhibition [1, 2]: 15% |
| O=S(=O)(C(=CNc1ccc2ccccc2n1)S(=O)(=O)c1ccccc1)c1ccccc1 [G, 1,1-bis(phenylsulphonyl)-2-(quinol-2-ylamino)ethene] |  | % inhibition [1, 3]: 30%; % inhibition [1, 2]: 24% |
| Cc1cc(NC=C(S(=O)(=O)c2ccccc2)S(=O)(=O)c2ccccc2)nc(C)n1 [H, 1-(2,6-dimethylpyrimidin-4-ylamino)-2,2-bis(phenylsulphonyl)ethene] | < 10 |  |
| NC(=O)c1cnc(NC=C(S(=O)(=O)c2ccccc2)S(=O)(=O)c2ccccc2)cn1 [I, 1-(5-carbamoylpyrazin-2-ylamino)-2,2-bis(phenylsulphonyl)ethene] |  | % inhibition ([1]; dose 40 mg/kg animal body weight): 30% |
| CS(=O)(=O)C(C#N)=CNc1ccc(Br)cn1 [N, 2-(5-bromopyrid-2-ylamino)-1-cyano-1-methylsulphonylethene] | 28 |  |
| CC(=O)C(=CNc1ccc(Br)cn1)S(=O)(=O)c1ccccc1 [O, 1-acetyl-2-(5-bromopyrid-2-ylamino)-1-phenylsulphonylethene] | 14 |  |
| O=S(=O)(C(=CNCc1ccccc1)S(=O)(=O)c1ccc(Cl)cc1)c1ccc(Cl)cc1 [V, 2-benzylamino-1,1-bis(4-chlorophenylsulphonyl)ethene] | < 10 |  |
| O=S(=O)(C(=CNCc1ccccn1)S(=O)(=O)c1ccc(Cl)cc1)c1ccc(Cl)cc1 [W, 1,1-bis(4-chlorophenylsulphonyl)-2-(pyrid-2-ylmethylamino)ethene] | < 10 |  |
| O=S(=O)(C(=CNc1ccccc1)S(=O)(=O)c1ccccc1)c1ccccc1 [Z, 1-phenylamino-2,2-bis(phenylsulphonyl)ethene] | 2 |  |
